Measurements published in ChEMBL document CHEMBL6109101, “Synthesis and bioactivity of cyclic peptide GG-8-6 analogues as anti-hepatocellular carcinoma agents” (Eur J Med Chem, 2025).
The source made the active and inactive calls. The rule behind the calls is not given here.

Assays:
Format in all cases: functional, cell-based
Huh-7 = test: Cytotoxicity against human Huh-7 cells assessed as inhibition of cell proliferation incubated for 48 hrs by MTT assay; details: Huh-7, 48 h
HCCLM3 [1] = test: Cytotoxicity against human HCCLM3 cells assessed as inhibition of cell proliferation incubated for 48 hrs by MTT assay; details: HCCLM3, 48 h
MHCC97H [2] = test: Cytotoxicity against human MHCC97H cells assessed as inhibition of cell proliferation incubated for 48 hrs by MTT assay
HepG2 = test: Cytotoxicity against human HepG2 cells assessed as inhibition of cell proliferation incubated for 48 hrs by MTT assay; details: HepG2, 48 h
HCCLM3 [3] = test: Cytotoxicity against human HCCLM3 cells assessed as cell viability incubated at 12 to 48 hrs hrs by MTT assay; details: dose <= 40.0 µM, time 12-48 hrs
HCCLM3 [4] = test: Cytotoxicity against human HCCLM3 cells assessed as cell viability up to 40 uM measured at 12 hrs by MTT assay
HCCLM3 [5] = test: Cytotoxicity against human HCCLM3 cells assessed as reduction in cell viability up to 40 uM measured at 48 hrs by MTT assay
HCCLM3 [6] = test: Cytotoxicity against human HCCLM3 cells assessed as cell viability up to 40 uM by MTT assay; details: time 12-48 hrs
MHCC97H [7] = test: Cytotoxicity against human MHCC97H cells assessed as cell viability up to 40 uM measured at 12 hrs by MTT assay
MHCC97H [8] = test: Cytotoxicity against human MHCC97H cells assessed as cell viability up to 40 uM by MTT assay; details: time 12-48 hrs
HCCLM3 [9] = test: Cytotoxicity against human HCCLM3 cells assessed as reduction in cell viability at 40 uM measured after 48 hrs by MTT assay
MHCC97H [10] = test: Cytotoxicity against human MHCC97H cells assessed as cell viability incubated at 12 to 48 hrs hrs by MTT assay; details: dose <= 40.0 µM, time 12-48 hrs
MHCC97H [11] = test: Cytotoxicity against human MHCC97H cells assessed as reduction in cell viability up to 40 uM measured at 48 hrs by MTT assay
MHCC97H [12] = test: Cytotoxicity against human MHCC97H cells assessed as reduction in cell viability at 40 uM measured after 48 hrs by MTT assay
MHCC97H [13] = test: Cytotoxicity against human MHCC97H cells assessed as reduction in cell viability at 40 uM measured at 48 hrs by MTT assay
MHCC97H [14] = test: Cytotoxicity against human MHCC97H cells assessed as cell viability up to 40 uM measured at 24 to 48 hrs by MTT assay; details: time 24-48 hrs
HCCLM3 [15] = test: Cytotoxicity against human HCCLM3 cells assessed as reduction in cell viability at 40 uM measured at 48 hrs by MTT assay
HCCLM3 [16] = test: Cytotoxicity against human HCCLM3 cells assessed as cell viability up to 40 uM measured at 24 to 48 hrs by MTT assay; details: time 24-48 hrs

SMILES | IC50 (Huh-7) [µM] | IC50 (HCCLM3 [1]) [µM] | IC50 (MHCC97H [2]) [µM] | IC50 (HepG2) [µM] | other results
CC[C@@H](C)[C@H]1NC(=O)[C@@H]2CCCN2C(=O)[C@@H](CC(C)C)NC(=O)[C@H]([C@H](C)OC(C)(C)C)NC(=O)[C@@H](CC(C)C)NC(=O)[C@H](C(C)C)NC(=O)[C@H](CC(C)C)NC(=O)[C@H](CC(C)C)NC(=O)[C@H](CC(C)C)NC1=O | 3.41 | 4.19 | 6.05 | 3.41 | 
CC[C@@H](C)[C@H]1NC(=O)[C@@H]2CCCN2C(=O)[C@@H](CC(C)C)NC(=O)[C@@H]([C@@H](C)OC(C)(C)C)NC(=O)[C@@H](CCCCNC(=O)OC(C)(C)C)NC(=O)[C@H](C(C)C)NC(=O)[C@H](CC(C)C)NC(=O)[C@H](CC(C)C)NC(=O)[C@H](CC(C)C)NC1=O | > 100 | 6.57 | 9.19 | > 100 | Activity (HCCLM3 [3]): Dose-dependent-effect; Activity (HCCLM3 [4]): Active; Activity (HCCLM3 [5]): Active; Activity (HCCLM3 [6]): Time-dependent-effect; Activity (MHCC97H [7]): Active; Activity (MHCC97H [8]): Time-dependent-effect; Activity (HCCLM3 [9]): Active; Activity (MHCC97H [10]): Dose-dependent-effect; Activity (MHCC97H [11]): Active; Activity (MHCC97H [12]): Active; Activity (MHCC97H [13]): Active; Activity (MHCC97H [14]): Active; Activity (HCCLM3 [15]): Active; Activity (HCCLM3 [16]): Active
CC[C@@H](C)[C@H]1NC(=O)[C@@H]2CCCN2C(=O)[C@@H](CC(C)C)NC(=O)[C@@H]([C@@H](C)OC(C)(C)C)NC(=O)[C@H](CC(C)C)NC(=O)[C@H](C(C)C)NC(=O)[C@H](CC(C)C)NC(=O)[C@H](CC(C)C)NC(=O)[C@H](CC(C)C)NC1=O | > 100 | > 100 | > 100 | > 100 | 
CC(C)C[C@@H]1NC(=O)[C@H](CC(C)C)NC(=O)[C@@H](CCCCNC(=O)OC(C)(C)C)NC(=O)[C@@H]2CCCN2C(=O)[C@@H](CC(C)C)NC(=O)[C@H](COC(C)(C)C)NC(=O)[C@H](CC(C)C)NC(=O)[C@H](C(C)C)NC(=O)[C@H](CC(C)C)NC1=O | > 100 | 10.2 | 10.2 | > 100 | 
CC[C@@H](C)[C@H]1NC(=O)[C@@H]2CCCN2C(=O)[C@@H](CC(C)C)NC(=O)[C@@H](Cc2ccccc2)NC(=O)[C@H](CC(C)C)NC(=O)[C@H](C(C)C)NC(=O)[C@H](CC(C)C)NC(=O)[C@H](CC(C)C)NC(=O)[C@H](CC(C)C)NC1=O | > 100 | > 100 | > 100 | > 100 | 
CC(C)C[C@@H]1NC(=O)[C@H](CC(C)C)NC(=O)[C@@H](CCCCNC(=O)OC(C)(C)C)NC(=O)[C@@H]2CCCN2C(=O)[C@@H](CC(C)C)NC(=O)[C@H](Cc2ccc(OC(C)(C)C)cc2)NC(=O)[C@H](CC(C)C)NC(=O)[C@H](C(C)C)NC(=O)[C@H](CC(C)C)NC1=O | > 100 | 3.26 | 3.51 | > 100 | Activity (HCCLM3 [3]): Dose-dependent-effect; Activity (HCCLM3 [4]): Active; Activity (HCCLM3 [5]): Active; Activity (HCCLM3 [6]): Time-dependent-effect; Activity (MHCC97H [7]): Active; Activity (MHCC97H [8]): Time-dependent-effect; Activity (HCCLM3 [9]): Active; Activity (MHCC97H [10]): Dose-dependent-effect; Activity (MHCC97H [11]): Active; Activity (MHCC97H [12]): Active; Activity (MHCC97H [13]): Active; Activity (MHCC97H [14]): Active; Activity (HCCLM3 [15]): Active; Activity (HCCLM3 [16]): Active
CC[C@@H](C)[C@H]1NC(=O)[C@@H]2CCCN2C(=O)[C@@H](CC(C)C)NC(=O)[C@H](CCCCNC(=O)OC(C)(C)C)NC(=O)[C@@H](CC(C)C)NC(=O)[C@H](C(C)C)NC(=O)[C@H](CC(C)C)NC(=O)[C@H](CC(C)C)NC(=O)[C@H](CC(C)C)NC1=O | > 100 | > 100 | > 100 | > 100 | 
CC[C@@H](C)[C@H]1NC(=O)[C@@H]2CCCN2C(=O)[C@@H](CC(C)C)NC(=O)[C@@H](Cc2ccc(OC(C)(C)C)cc2)NC(=O)[C@H](CC(C)C)NC(=O)[C@H](C(C)C)NC(=O)[C@H](CC(C)C)NC(=O)[C@H](CC(C)C)NC(=O)[C@H](CC(C)C)NC1=O | > 100 | > 100 | > 100 | > 100 | 
CC[C@@H](C)[C@H]1NC(=O)[C@@H]2CCCN2C(=O)[C@@H](CC(C)C)NC(=O)[C@H](Cc2ccc(OC(C)(C)C)cc2)NC(=O)[C@@H](CC(C)C)NC(=O)[C@H](C(C)C)NC(=O)[C@H](CC(C)C)NC(=O)[C@H](CC(C)C)NC(=O)[C@H](CC(C)C)NC1=O | 2.08 | 2.86 | 4.86 | 2.08 | 
CC[C@@H](C)[C@H]1NC(=O)[C@@H]2CCCN2C(=O)[C@@H](CC(C)C)NC(=O)[C@@H](COC(C)(C)C)NC(=O)[C@H](CC(C)C)NC(=O)[C@H](C(C)C)NC(=O)[C@H](CC(C)C)NC(=O)[C@H](CC(C)C)NC(=O)[C@H](CC(C)C)NC1=O | > 100 | > 100 | > 100 | > 100 | 
CC[C@@H](C)[C@H]1NC(=O)[C@@H]2CCCN2C(=O)[C@@H](CC(C)C)NC(=O)[C@H](C(C)C)NC(=O)[C@@H](CC(C)C)NC(=O)[C@H](C(C)C)NC(=O)[C@H](CC(C)C)NC(=O)[C@H](CC(C)C)NC(=O)[C@H](CC(C)C)NC1=O | 12.2 | 9.94 | 8.18 | 12.2 | 
CC[C@@H](C)[C@H]1NC(=O)[C@@H]2CCCN2C(=O)[C@@H](CC(C)C)NC(=O)[C@H](COC(C)(C)C)NC(=O)[C@@H](CCCCNC(=O)OC(C)(C)C)NC(=O)[C@H](C(C)C)NC(=O)[C@H](CC(C)C)NC(=O)[C@H](CC(C)C)NC(=O)[C@H](CC(C)C)NC1=O | > 100 | 2.99 | 3.04 | > 100 | 
CC(C)C[C@@H]1NC(=O)[C@H](CC(C)C)NC(=O)[C@@H](CCCCNC(=O)OC(C)(C)C)NC(=O)[C@@H]2CCCN2C(=O)[C@@H](CC(C)C)NC(=O)[C@H](Cc2ccccc2)NC(=O)[C@H](CC(C)C)NC(=O)[C@H](C(C)C)NC(=O)[C@H](CC(C)C)NC1=O | > 100 | 5.23 | 3.64 | > 100 | 
CC(C)C[C@@H]1NC(=O)[C@H](CC(C)C)NC(=O)[C@@H](CCCCNC(=O)OC(C)(C)C)NC(=O)[C@@H]2CCCN2C(=O)[C@@H](CC(C)C)NC(=O)[C@H](C(C)C)NC(=O)[C@H](CC(C)C)NC(=O)[C@H](C(C)C)NC(=O)[C@H](CC(C)C)NC1=O | > 100 | 2.17 | 2.7 | > 100 | 
CC[C@@H](C)[C@H]1NC(=O)[C@@H]2CCCN2C(=O)[C@@H](CC(C)C)NC(=O)CNC(=O)[C@H](CC(C)C)NC(=O)[C@H](C(C)C)NC(=O)[C@H](CC(C)C)NC(=O)[C@H](CC(C)C)NC(=O)[C@H](CC(C)C)NC1=O | > 100 | > 100 | > 100 | > 100 | 
